In patent US6740639B1, “Inclusion complees of a high potent opioid peptide, pharmaceutical compositions and method of treatment” (Council of Scientific & Industrial Research, priority 2000, dated 2004):
Non-standard residues stand in square brackets, D forms with d. No end group written: not given here. Phe(4-NO2) = N[C@@H](Cc1ccc([N+](=O)[O-])cc1)C(=O)O

What was measured:
rhesus monkeys = assay: 30 days toxicity study by subcutaneous route in rhesus monkey; type: in vivo; conditions: s.c. once daily 30 days, 3.75, 7.5 and 15 mg/kg
Procedure: (§1) 30 days toxicity study or L-Tyrosyl-D-alanyl-glycyl-N-methylphenylalanyl-glycyl-isopropylamide in rat and rhesus monkey by subcutaneous route.
(§2) Compound L-Tyrosyl-D-alanyl-glycyl-N-methylphenytalanyt-glycyl-isopropylamide dissolved in saline was given daily by subcutaneous route to groups of rats (n=10 males and 10 females in each group) and rhesus monkeys ([…] and 2 females in each group) once daily for 30 consecutive days. The dose levels used in rats were 0.0, 7.5, 15.0 and 30.0 mg/kg and in monkeys 0.0, 3.75, 7.5 and 15 mg/kg. Dose levels were selected on the basis of rat ED of 3.0 mg/kg and extrapolation thereof in the monkey.
(§3) A careful general inspection of the animals was done at least once each day Cage-side observations included changes in skin and fur, eyes and mucous membranes, general activity and behavior and also general signs of abnormal functioning of respiratory, circulators, autonomic and central nervous system and somatomotor activity. Body weights (weekly in rats initial and day 30 in monkeys), daily food (rat and monkeys) and water (rat only) consumption and parameters of hematology urinalysis and blood biochemistry of the animals was recorded All the animals were sacrificed at the end of 30 days. Necropsy was performed and histophathological examination of all the important organs and tissues were done. […]

rats = assay: 30 days toxicity study by subcutaneous route in rat; type: in vivo; conditions: s.c. once daily 30 days, 7.5, 15.0 and 30.0 mg/kg
Procedure: as §1, §2, §3

[1] = Chronic and subacute toxicity studies (background); conditions: in vivo
LD50 in mice = conditions: mouse, in vivo, ip
Procedure: It is evident from above table that the ED50 of beta CD complex is about one third than the compound L-Tyrosyl-D-alanyl-glycyl-N-methylphenylalanyl-glycyl-isopropylamide by subcutaneous route and was one half by oral route. The LD50 of the compound L-Tyrosyl-D-alanyl-glycyl-N-methylphenylalanyl-glycyl-isopropylamide is 1000 mg/Kg i.p., and that of the complex is >10,000 mg/kg P. O. in mice.

[2] = Addiction liabilities and tolerance (background); type: in vivo; conditions: compared to morphine
[3] = CNS and cardiovascular effects (background); conditions: in vivo
[4] = cited from earlier work; for analgesic potency compared with morphine: systemic administration; for analgesic effect: systemic route of administration
μ and δ receptors = conditions: cited from earlier work
leucine amino peptidase = conditions: enzyme hydrolysis with leucine amino peptidase; cited from earlier work

Question: Which results are given for CC(C)NC(=O)CNC(=O)[C@H](Cc1ccccc1)N(C)C(=O)CNC(=O)[C@@H](C)NC(=O)[C@@H](N)Cc1ccc(O)cc1 [L-Tyrosyl-D-alanyl-glycyl-N-methylphenylalanyl-glycyl-isopropylamide]?
Answer: 30-day toxicity finding (rhesus monkeys): safe; 30-day toxicity finding (rats): safe; chronic and subacute toxicity finding [1]: safe and did not produce any noticeable toxic side effects; LD50 (LD50 in mice): 1000 mg/kg; tolerance and addiction properties [2]: significantly reduced tolerance and addiction properties as compared to morphine; CNS effects like sedation and respiratory depression [3]: virtually devoid of any major CNS effects; cardiovascular effects [3]: virtually devoid of any significant cardiovascular effects

Question: For “Tyr-Arg-Gly-Phe(pNO2)-Pro-NH2 (YRG[Phe(4-NO2)]P-NH2; N-terminus assumed; SMILES N=C(N)NCCC[C@H](NC(=O)[C@@H](N)Cc1ccc(O)cc1)C(=O)NCC(=O)N[C@@H](Cc1ccc([N+](=O)[O-])cc1)C(=O)N1CCC[C@H]1C(N)=O) [BW-443C, enkephalin analog]”, which “analgesic potency compared with morphine” value [4] is on record?
Answer: The value was “more potent analgesic than morphine”.

Question: For Tyr-D-Ala-Gly,-Met(o)-01 [FK-33-824], which opioid receptor selectivity (μ and δ receptors) is on record?
Answer: The opioid receptor selectivity was “only slight preference for p-receptors”.

Question: What about the analgesic effect [4] of the same molecule?
Answer: The analgesic effect was “strong analgesic effect”.

Question: With “Tyr-D-Ala-Gly-Phe-MeMet-NH2 [met-kephamid]” as the molecule, how does the opioid receptor selectivity (μ and δ receptors) read?
Answer: Its opioid receptor selectivity is “essentially non-elective for μ and δ receptors”.

Question: And the analgesic effect [4]?
Answer: The analgesic effect was “strong analgesic effect”.

Question: Which half life (leucine amino peptidase) does the source give for Leu-enkephalin here?
Answer: The half life was 45 min.

Question: For Y[dM]GFP-NH2, which “analgesic potency compared with morphine” value [4] is on record?
Answer: Its value is “more potent analgesic than morphine”.
